Measured values reported in patent US9340539B2, “Hepatitis C inhibitor compounds” (priority 2011, dated 2016).

Tested on: HCVpp (HCV E1/E2, isolate Con1) entry into Hep3B2.1-7 cells
Test: microbe, parasite or virus in culture
Assay type: cell-based
Conditions: Hepatitis C virus, 72 h, read-out: EC50 (nM) (Ex. 58)

Compound	EC50
CC1(C)CC(C)(C)c2c([nH]c3ccc(C(=O)Nc4cnccn4)cc23)C1=O [Compound 7050]	88 nM
CC1(C)CC(C)(C)c2c([nH]c3ccc(C(=O)N[C@H]4CC[C@H](NCC5CC5)CC4)cc23)C1=O [Compound 7019]	82 nM
CC1(C)CC2(CC2)c2c([nH]c3ccc(C(=O)NCCCn4cncn4)cc23)C1=O [Compound 6001]	66 nM
O=C(NC1CCS(=O)(=O)C1)c1ccc2[nH]c3c(c2c1)C1(CCCC3=O)CC1 (stereo not drawn) [Compound 1104]	122 nM
CC1(C)CC(C)(C)c2c([nH]c3ccc(C(=O)NC4CCN(CCF)C4)cc23)C1=O (stereo not drawn) [Compound 2003]	117 nM
CC1(C)CC2(CCOCC2)C(=O)c2[nH]c3ccc(C(=O)NC4CCS(=O)(=O)C4)cc3c21 (stereo not drawn) [Compound 5003]	385 nM
CC1(C)CC2(CC2)C(=O)c2[nH]c3ccc(C(=O)NC4CCN(C(=O)c5nc[nH]n5)C4)cc3c21 (stereo not drawn) [Compound 5008]	22 nM
CC1(C)CC(C)(C)c2c([nH]c3ccc(C(=O)NC4CCN(C(=O)c5ccccn5)C4)cc23)C1=O (stereo not drawn) [Compound 2026]	36 nM
CC1CC(C)(C)c2c([nH]c3ccc(C(=O)NC4CCS(=O)(=O)C4)cc23)C1=O (stereo not drawn) [Compound 5014]	187 nM
CC1(C)CC(C)(C)c2c([nH]c3ccc(C(=O)NC4CCN(S(C)(=O)=O)C4)cc23)C1=O (stereo not drawn) [Compound 2058]	39 nM
CC1(C)CC(C)(C)c2c([nH]c3cnc(C(=O)NCc4ccccn4)cc23)C1=O [Compound 9004]	85 nM
COCC1(C)CC(C)(C)c2c([nH]c3ccc(C(=O)NC4CCN(C(=O)c5n[nH]c(N)n5)C4)cc23)C1=O (stereo not drawn) [Compound 5017]	9.3 nM
CN1CCC[C@H](NC(=O)c2ccc3[nH]c4c(c3c2)C(C)(C)CC(C)(C)C4=O)C1 [Compound 3006]	102 nM
CC1(C)CC2(CCC2)c2c([nH]c3ccc(C(=O)NC4CCN(C(=O)c5nc[nH]n5)C4)cc23)C1=O (stereo not drawn) [Compound 6016]	3.4 nM
CC1(C)CC(C)(C)c2c([nH]c3ccc(C(=O)NC4CCS(=O)(=O)CC4)cc23)C1=O [Compound 7008]	201 nM
CC1(C)CC(C)(C)c2c([nH]c3ccc(-c4nnc(NC5CCS(=O)(=O)C5)o4)cc23)C1=O (stereo not drawn) [Compound 1103]	34 nM
COC(=O)c1ccc2[nH]c3c(c2c1)C(C)(C)CC(C)(C)C3=O [Compound 1107]	195 nM
Cn1cncc1CNC(=O)CNC(=O)c1ccc2[nH]c3c(c2c1)C(C)(C)CC(C)(C)C3=O [Compound 7010]	126 nM
